{
  "source": "patent US6277886A",
  "about": "(priority 1996, dated 2001)",
  "key": {"[1]": {"test_system": "male Wistar rats after middle cerebral artery occlusion (MCA-O)", "source_text": "In order to expose the left middle cerebral artery, a cut was made in the temporal muscle. The tip of the coronoid process of mandible was excised as well and removed with a fine rongeur. Craniectomy was made with a dental drill at the junction between the median wall and the roof of the inferotemporal fossa.\nThe dura matter was opened carefully using a 27 gauge needle. […] Following this, the temporalis muscle was sutured and laid over the craniectomy site. The skin was closed with a running 3-0 silk suture. […] The volume of brain tissue incurring damage following ischemia was determined."}, "[2]": {"test_system": "reserpine induced ptosis in rats", "assay": "Reserpine-induced ptosis in rats", "type": "in vivo", "conditions": "for Mean score of reserpine-induced ptosis: reserpine 5 mg/kg i.p., 0-4 scale, 4 = eyes completely open, saline 0.86", "source_text": "Reserpine-induced ptosis and its reversal test. Reserpine causes depletion of catecholamine stores, especially norepinephrine. This effect in the live animal is manifested among other things, in ptosis. Drugs that can prevent or inhibit reserpine-induced ptosis act either directly as noradrenergic agonists, or indirectly by decreasing or preventing the metabolic elimination of endogenous norepinephrine. MAO inhibitors belong to the latter category."}, "anesthetized cat": {"test_system": "anesthetized cat", "conditions": "for Change in MABP / Change in PR: 45-60 min", "method": "(§1) Cats were anesthetized with i.v. nembutal 25 mg/kg. Anesthesia was maintained by additional injections of nembutal, 5 mg/kg, as needed. The femoral artery was cannulated and connected to a Statham pressure transducer for blood pressure recordings on a Grass multichannel Polygraph. The femoral vein was cannulated for i.v. injection of drugs."}, "[3]": {"test_system": "pressor response to catecholamines in the cat", "assay": "Pressor response to catecholamines in the anesthetized cat before and after S(-)PAI", "type": "in vivo", "conditions": "S(-)PAI 1 mg/kg i.v.", "method": "as §1"}, "WKY rats": {"test_system": "WKY rats", "conditions": "for Change in HR / Change in MBAP: 45-60 min", "method": "(§2) A chronic indwelling catheter was implanted in the caudal artery under light anesthesia with averteen. The animals were allowed to recover and were tested 24 hours after implantation. The cathetar was connected to a Statham pressure transducer and blood pressure was recorded on a Grass multichannel Polygraph. During this period, the rat was kept in its home cage in order to minimize handling and undue manipulations known to affect blood pressure.\n(§3) Two strains of rats were used: WKY rats and matching SHR (Spontaneously Hypertensive Rats) rats. WKY rats were from a local strain, weighing about 250 g each.\n(§4) Blood pressure and heart rate were then monitored for the duration of 45-60 minutes."}, "[4]": {"test_system": "SHR (Spontaneously Hypertensive Rats) rats", "conditions": "for Change in HR / Change in MBAP: 45-60 min", "method": "as §2, §3\nSHR rats were purchased from Charles River breeders, England. The animals were allowed to acclimatize and recover from the journey and were used at the age of three months, in order to match their WKY controls. SHR hypertension develops gradually from the age of one month to the age of three months. At this stage, blood pressure is already elevated above normotensive levels.\nas §4"}, "SHR rats": {"test_system": "SHR rats", "conditions": "for Change in Mean Systolic Blood Pressure / Change in Heart rate: 2 mg/kg p.o. daily", "method": "(§5) Spontaneously hypertensive rats, three month-old, were used. […] Controls received an equivalent volume of tap water. Treatment lasted 14 days. During this period, systolic blood pressure was monitored on days 0, 4, 7 and 11, using a tail-cuff procedure. On day 14, systolic blood pressure was determined using the indwelling catheter procedure described in Example 7."}, "[5]": {"conditions": "for Weight: 2 mg/kg/day oral", "method": "as §5\nThe rats used in Example 8 above, were additionally monitored for weight gain/loss as an additional marker for the rate of food consumption MAO inhibitors usually elevate central catechoiamines which may depress appetite."}, "[6]": {"test_system": "injured mice after closed head injury (CHI)", "conditions": "1 mg/kg s.c. 15 min after CHI", "method": "The procedure for closed head injury followed was as described for rats in Shohami et al. (J Neurotrauma (1993) 10(2) 109-119) with changes as described.\nAnimals: Male Sabra mice (Hebrew University strain) weighing 34-40 g were used. They were housed in groups of 10 per cage, in a 12 hr:12 hr. light:dark cycle. Food and water were provided ad libitium.\nTrauma was induced under anaesthesia. A longitudinal incision was performed in the skin covering the skull and the skin retracted to expose the skull. The head was fixed manually at the lower plane of the impact apparatus. A weight of 333 g was delivered by an electric device from a distance of 3 cm to the left hemisphere, 1-2 mm lateral to the midline in the midcoronal plane.\nOne point was awarded for the lack of a tested reflex or for the inability to perform the task outline in the Table. The maximal score that can be reached at 1 hour post-CHI is 25 points and at later times, 21 points. The difference in NSS at 1 hr. and at any other time reflects the spontaneous recovery, and is referred to as ΔNSS. A score of 15-19 at 1 hr denotes severe injury, 11-14 denotes moderate injury and less than 10 denotes mild injury."}, "MAO mediated effects": {"test_system": "MAO mediated effects", "conditions": "Examples 4-9; in words"}, "MAO-A/MAO-B": {"test_system": "MAO-A/MAO-B", "conditions": "in vitro; in words; cited from earlier work"}},
  "note": "Where “and” joins values, the source holds several entries; their conditions need not be identical. Equal entries are not always repeated. Where two headings read alike, the source gives them in different places.",
  "data": [
    {"smiles": "C#CCN[C@H]1CCc2ccccc21", "note": "[S(-)PAI, S-(-)-N-propargyl-1-aminoindan]", "values": [
      {"measurement": "neurological severity score (NSS) and infarct volume versus saline-treated rats", "setting": "[1]; in words", "result": "significantly lower"},
      {"measurement": "Mean NSS ± SEM after 24 hours", "setting": "[1]; ip, 2 mg/kg", "result": "6.5 ± 0.48"},
      {"measurement": "Mean score of reserpine-induced ptosis", "setting": "[2]; 5 mg/kg i.p.", "result": 1.8},
      {"measurement": "Mean score of reserpine-induced ptosis", "setting": "[2]; 10 mg/kg i.p.", "result": 2.5},
      {"measurement": "Mean score of reserpine-induced ptosis", "setting": "[2]; 20 mg/kg i.p.", "result": 1.5},
      {"measurement": "endogenous norepinephrine concentrations (inferred from ptosis scores)", "setting": "[2]; in words", "result": "does not cause an increase in endogenous norepinephrine concentrations"},
      {"measurement": "Change in MABP", "setting": "anesthetized cat; dose 0.03, i.v.", "result": "7 mmHg and 5 mmHg"},
      {"measurement": "Change in MABP", "setting": "anesthetized cat; dose 0.1, i.v.", "result": -12, "unit": "mmHg"},
      {"measurement": "Change in PR", "setting": "anesthetized cat; dose 0.1, i.v.", "result": 0, "unit": "beats/min"},
      {"measurement": "Change in MABP", "setting": "anesthetized cat; dose 1.0, i.v.", "result": 2, "unit": "mmHg"},
      {"measurement": "Change in PR", "setting": "anesthetized cat; dose 1.0, i.v.", "result": -5, "unit": "beats/min"},
      {"measurement": "mean arterial blood pressure (MABP) and heart rate (HR)", "setting": "anesthetized cat; i.v., up to cumulative dose of 1 mg/kg, 45-60 minutes, in words", "result": "neither mean arterial blood pressure (MABP) nor heart rate (HR) were affected"},
      {"measurement": "Δ mean arterial pressure after S(-)PAI", "setting": "[3]; challenge norepinephrine 0.02 μg/kg", "result": 12, "unit": "mmHg"},
      {"measurement": "Δ mean arterial pressure after S(-)PAI", "setting": "[3]; challenge norepinephrine 0.05 μg/kg", "result": 32, "unit": "mmHg"},
      {"measurement": "Δ mean arterial pressure after S(-)PAI", "setting": "[3]; challenge norepinephrine 0.10 μg/kg", "result": 23, "unit": "mmHg"},
      {"measurement": "Δ mean arterial pressure after S(-)PAI", "setting": "[3]; challenge norepinephrine 0.20 μg/kg", "result": 46, "unit": "mmHg"},
      {"measurement": "Δ mean arterial pressure after S(-)PAI", "setting": "[3]; challenge phenylephrine 0.20 μg/kg", "result": 2, "unit": "mmHg"},
      {"measurement": "Δ mean arterial pressure after S(-)PAI", "setting": "[3]; challenge phenylephrine 0.50 μg/kg", "result": 17, "unit": "mmHg"},
      {"measurement": "Δ mean arterial pressure after S(-)PAI", "setting": "[3]; challenge phenylephrine 1.0 μg/kg", "result": 17, "unit": "mmHg"},
      {"measurement": "Δ mean arterial pressure after S(-)PAI", "setting": "[3]; challenge phenylephrine 2.0 μg/kg", "result": 42, "unit": "mmHg"},
      {"measurement": "Δ mean arterial pressure after S(-)PAI", "setting": "[3]; challenge tyramine 2.0 μg/kg", "result": 3, "unit": "mmHg"},
      {"measurement": "Δ mean arterial pressure after S(-)PAI", "setting": "[3]; challenge tyramine 5.0 μg/kg", "result": 9, "unit": "mmHg"},
      {"measurement": "Δ mean arterial pressure after S(-)PAI", "setting": "[3]; challenge tyramine 10.0 μg/kg", "result": 28, "unit": "mmHg"},
      {"measurement": "Δ mean arterial pressure after S(-)PAI", "setting": "[3]; challenge tyramine 20.0 μg/kg", "result": 39, "unit": "mmHg"},
      {"measurement": "potentiation of the pressor response", "setting": "[3]; phenylephrine, tyramine, norepinephrine, in words", "result": "no significant potentiation of the pressor response"},
      {"measurement": "blood pressure and heart rate", "setting": "WKY rats; acute oral, in words", "result": "no effect on either parameter in either strain of rats"},
      {"measurement": "Change in HR", "setting": "WKY rats; dose 5, oral", "result": 0, "unit": "beats/min"},
      {"measurement": "Change in MBAP", "setting": "WKY rats; dose 5, oral", "result": 0, "unit": "mmHg"},
      {"measurement": "Change in HR", "setting": "WKY rats; dose 10, oral", "result": 0, "unit": "beats/min"},
      {"measurement": "Change in MBAP", "setting": "WKY rats; dose 10, oral", "result": 0, "unit": "mmHg"},
      {"measurement": "Change in HR", "setting": "WKY rats; dose 20, oral", "result": 0, "unit": "beats/min"},
      {"measurement": "blood pressure and heart rate", "setting": "[4]; acute oral, in words", "result": "no effect on either parameter in either strain of rats"},
      {"measurement": "Change in HR", "setting": "[4]; dose 1, oral", "result": -30, "unit": "beats/min"},
      {"measurement": "Change in MBAP", "setting": "[4]; dose 1, oral", "result": -16, "unit": "mmHg"},
      {"measurement": "Change in HR", "setting": "[4]; dose 2, oral", "result": 0, "unit": "beats/min"},
      {"measurement": "Change in MBAP", "setting": "[4]; dose 2, oral", "result": -12, "unit": "mmHg"},
      {"measurement": "Change in HR", "setting": "[4]; dose 10, oral", "result": 0, "unit": "beats/min"},
      {"measurement": "Change in MBAP", "setting": "[4]; dose 10, oral", "result": 4, "unit": "mmHg"},
      {"measurement": "Change in Mean Systolic Blood Pressure", "setting": "SHR rats; day 0, tap water 169.55 ± 7.73", "result": "166.88 ± 6.11", "unit": "mmHg"},
      {"measurement": "Change in Heart rate", "setting": "SHR rats; day 0, tap water 374.09 ± 7.17", "result": "404.13 ± 32.86", "unit": "beats/min"},
      {"measurement": "Change in Mean Systolic Blood Pressure", "setting": "SHR rats; day 4, tap water 177.82 ± 9.08", "result": "168.5 ± 12.8", "unit": "mmHg"},
      {"measurement": "Change in Heart rate", "setting": "SHR rats; day 4, tap water 403 ± 23.3", "result": "394.5 ± 37.43", "unit": "beats/min"},
      {"measurement": "Change in Mean Systolic Blood Pressure", "setting": "SHR rats; day 7, tap water 177.67 ± 10.21", "result": "172.13 ± 14.62", "unit": "mmHg"},
      {"measurement": "Change in Heart rate", "setting": "SHR rats; day 7, tap water 392.67 ± 24.66", "result": "394.38 ± 24.47", "unit": "beats/min"},
      {"measurement": "Change in Mean Systolic Blood Pressure", "setting": "SHR rats; day 11, tap water 178 ± 8.65", "result": "167.43 ± 14.23", "unit": "mmHg"},
      {"measurement": "Change in Heart rate", "setting": "SHR rats; day 11, tap water 371.25 ± 27.22", "result": "408 ± 40.04", "unit": "beats/min"},
      {"measurement": "intraindividual and interindividual profile of systolic blood pressure and heart rate", "setting": "SHR rats; chronic oral 2 mg/kg/day, in words", "result": "no effect"},
      {"measurement": "Weight", "setting": "[5]; day 0, tap water 317 ± 32.64", "result": "294.13 ± 32.06", "unit": "g"},
      {"measurement": "Weight", "setting": "[5]; day 7, tap water 302.22 ± 35.17", "result": "292.25 ± 28.47", "unit": "g"},
      {"measurement": "Weight", "setting": "[5]; day 14, tap water 312.89", "result": "307.33 ± 24.13", "unit": "g"},
      {"measurement": "body weight", "setting": "[5]; 2 mg/kg/day, 14 days, in words", "result": "no effect on body weight"},
      {"measurement": "Δ NSS, 24 hr post-CHI", "setting": "[6]; saline 4.75 ± 0.17", "result": "5.06 ± 0.25"},
      {"measurement": "Δ NSS, 7 days post-CHI", "setting": "[6]; saline 5.83 ± 0.36", "result": "7.19 ± 0.28"},
      {"measurement": "Δ NSS, 14 days post-CHI", "setting": "[6]; saline 5.96 ± 0.4", "result": "7.88 ± 0.36"},
      {"measurement": "effect on several MAO mediated effects", "setting": "MAO mediated effects", "result": "minimal or no effect"},
      {"measurement": "preference for MAO-B or MAO-A", "setting": "MAO-A/MAO-B", "result": "no preference to either substrate"}
    ]}
  ]
}
